Some test systems named below: CCRF-CEM; DU-145; HCC 2998; HCT-116; HOP-62; Malme-3M; NCI-H23; NCI-H460; NCI/ADR-RES; OVCAR-3; OVCAR-5; SNB-75; TK-10; UACC-257; UACC-62; UO-31; LOX IMVI; OVCAR-4; RXF 393.
Holding throughout (experiment): inhibition of tumour cell growth, NCI panel, 48 h

This is an account of results in ChEMBL document CHEMBL1201862, “PubChem BioAssay data set” (2004).

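These data come from cells grown in 96-well plates and exposed to compound for 48 hours at five concentrations. GI50: concentration for 50% inhibition of growth.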 Calls of active or inactive are those of the source. Cut-off read from the data, not from the text of the source: active = GI50 up to about 1.1 µM and inactive = higher.

Consider `O=C(NCCNCCO)N/N=C/c1ccc(Cl)cc1`, for which the GI50 in the assay on CCRF-CEM, in the assay with DU-145, in the assay on HCC 2998, in the assay on HCT-116, in the assay on HOP-62 and in the assay on Malme-3M was > 100 µM (inactive) in each case. For the same molecule, the GI50 with NCI-H23 is > 100 µM (inactive); with NCI-H460, > 100 µM (inactive); with NCI/ADR-RES, > 100 µM (inactive); with OVCAR-3, > 100 µM (inactive); with OVCAR-5 it was > 100 µM (inactive); with SNB-75, 36.1 µM (inactive). Besides, the GI50 in the assay with TK-10, in the assay on UACC-257, in the assay with UACC-62 and in the assay with UO-31 was > 100 µM (inactive) each time.
For the molecule `COCP1(=S)OC(C)CCN1C(C)C` (stereo unspecified), the GI50 in the assay on DU-145, in the assay with HCC 2998, with HCT-116, in the assay on HOP-62, in the assay with LOX IMVI and with Malme-3M was > 100 µM (inactive) throughout. Further, the GI50 in the assay with NCI-H23, with NCI-H460, with NCI/ADR-RES, in the assay with OVCAR-3, in the assay with OVCAR-4 and in the assay with OVCAR-5 was > 100 µM (inactive) throughout. For the same molecule, the GI50 in the assay with TK-10, in the assay with UACC-257, with UACC-62 and in the assay with UO-31 was > 100 µM (inactive) throughout.
As to `CN(CCNC(=O)c1cn(C)c2c1ccc1ccccc12)CCNC(=O)c1cn(C)c2c1ccc1ccccc12`, the GI50 in the assay with CCRF-CEM is 2.44 µM (inactive); with DU-145 it was 2.1 µM (inactive); with HCC 2998, 0.71 µM (active); in the assay with HCT-116, 1.99 µM (inactive); in the assay on HOP-62 it was 1.85 µM (inactive); in the assay on LOX IMVI it was 2.52 µM (inactive). In addition, the GI50 in the assay with Malme-3M was 2.14 µM (inactive); in the assay on NCI-H23, 3.14 µM (inactive); in the assay with NCI-H460, 1.85 µM (inactive); in the assay with NCI/ADR-RES, 7.82 µM (inactive); in the assay with OVCAR-3, 2.26 µM (inactive); with OVCAR-4, 5.62 µM (inactive). For the same molecule, the GI50 was 1.69 µM (inactive) in the assay with OVCAR-5; 1.79 µM (inactive) in the assay on SNB-75; 1.92 µM (inactive) with TK-10; 2.12 µM (inactive) with UACC-257; 2.7 µM (inactive) in the assay with UACC-62; 1.91 µM (inactive) in the assay on UO-31.
As to `O=C(CC(C(=O)c1cccs1)c1ccsc1)c1ccc(Cl)s1` (stereo unspecified), the GI50 was > 100 µM (inactive) in the assay on CCRF-CEM; > 100 µM (inactive) in the assay with DU-145; > 100 µM (inactive) with HCC 2998; 47.5 µM (inactive) in the assay with HCT-116; > 100 µM (inactive) in the assay with HOP-62; > 100 µM (inactive) in the assay on LOX IMVI. For the same molecule, the GI50 with Malme-3M is > 100 µM (inactive); in the assay on NCI-H23, > 100 µM (inactive); with NCI-H460 it was > 100 µM (inactive); in the assay on NCI/ADR-RES, 12.1 µM (inactive); with OVCAR-4, > 100 µM (inactive); with OVCAR-5 it was 31.4 µM (inactive). The GI50 with SNB-75 is > 100 µM (inactive); with TK-10 it was > 100 µM (inactive); in the assay on UACC-257, 67.9 µM (inactive); with UACC-62 it was 99.3 µM (inactive); in the assay on UO-31, 36.6 µM (inactive).
Take `Oc1ccc(-c2cc(-c3c(O)cc(O)cc3O)on2)cc1`: the GI50 was 23.2 µM (inactive) with CCRF-CEM; 53.1 µM (inactive) with DU-145; 66.4 µM (inactive) with HCC 2998; 42.5 µM (inactive) with HCT-116; > 100 µM (inactive) with HOP-62; 55.1 µM (inactive) in the assay with LOX IMVI. For the same molecule, the GI50 with Malme-3M is 70.5 µM (inactive); in the assay with NCI-H23, > 100 µM (inactive); in the assay on NCI-H460, 40.3 µM (inactive); in the assay with NCI/ADR-RES, > 100 µM (inactive); with OVCAR-3 it was > 100 µM (inactive); in the assay on OVCAR-4, > 100 µM (inactive). The GI50 with OVCAR-5 is > 100 µM (inactive); with SNB-75, 74.5 µM (inactive); in the assay with TK-10, 55.1 µM (inactive); in the assay with UACC-257, 97.5 µM (inactive); in the assay on UACC-62 it was 31.3 µM (inactive); with UO-31, 53 µM (inactive).
With `Cc1cc(C)nc(NS(=O)(=O)c2ccc(Nc3c4ccccc4nc4c(C(=O)NCCO)cccc34)cc2)n1`, the GI50 was 10.3 µM (inactive) in the assay with CCRF-CEM; 40.8 µM (inactive) with DU-145; 10.4 µM (inactive) with HCC 2998; 9.31 µM (inactive) in the assay with HOP-62; 10.6 µM (inactive) in the assay on LOX IMVI; 14.8 µM (inactive) in the assay with Malme-3M. Further, the GI50 was 23.8 µM (inactive) in the assay on NCI-H23; 14.1 µM (inactive) in the assay with NCI-H460; 48.5 µM (inactive) in the assay on NCI/ADR-RES; 19.8 µM (inactive) in the assay on OVCAR-3; 33.3 µM (inactive) in the assay on OVCAR-4; 24.5 µM (inactive) in the assay with OVCAR-5. The GI50 in the assay with SNB-75 is 3.27 µM (inactive); in the assay on UACC-257, > 10 µM (inactive); with UACC-62, 21.5 µM (inactive); in the assay on UO-31, > 10 µM (inactive).
For the molecule `CCOP(=O)(/C=C\n1cc(C)c(=O)[nH]c1=O)OCC`, the GI50 in the assay with CCRF-CEM, with DU-145, with HCT-116, with HOP-62, in the assay with LOX IMVI and with NCI-H23 was > 100 µM (inactive) each time. The GI50 in the assay with NCI-H460, in the assay on NCI/ADR-RES, in the assay with OVCAR-3, in the assay on OVCAR-4, in the assay on OVCAR-5 and in the assay with RXF 393 was > 100 µM (inactive) throughout. The GI50 in the assay on SNB-75, in the assay on TK-10, in the assay with UACC-257 and in the assay with UACC-62 was > 100 µM (inactive) in each case.
In the case of `CC12CC(c3ccccc3O1)C(C(=O)Nc1cccc(F)c1)C(=O)N2` (stereo unspecified), the GI50 with CCRF-CEM was 26.3 µM (inactive); in the assay with DU-145 it was > 100 µM (inactive); in the assay with HCC 2998, > 100 µM (inactive); in the assay on HCT-116, 91.2 µM (inactive); in the assay on HOP-62 it was > 100 µM (inactive); in the assay with LOX IMVI, 49 µM (inactive). Also, the GI50 in the assay with Malme-3M was > 100 µM (inactive); in the assay on NCI-H23, 17.3 µM (inactive); in the assay with NCI-H460, 47.2 µM (inactive); with NCI/ADR-RES, 26.6 µM (inactive); with OVCAR-3 it was 92 µM (inactive); in the assay with OVCAR-4, 30.1 µM (inactive). Besides, the GI50 in the assay on OVCAR-5 is > 100 µM (inactive); in the assay with UACC-257, 40.2 µM (inactive); in the assay with UACC-62, 52.6 µM (inactive); in the assay on UO-31, 7.78 µM (inactive).
Turning to `C=CCN(c1cc(OC)c2c(c1[N+](=O)[O-])C(C)(SC)C(=O)N2)S(C)(=O)=O` (stereo unspecified), the GI50 was > 100 µM (inactive) in the assay with DU-145; 65.5 µM (inactive) in the assay with HCC 2998; > 100 µM (inactive) with HCT-116; > 100 µM (inactive) in the assay with LOX IMVI; 97.5 µM (inactive) in the assay with Malme-3M; > 100 µM (inactive) in the assay on NCI-H23. Further, the GI50 is > 100 µM (inactive) with NCI-H460; > 100 µM (inactive) in the assay with NCI/ADR-RES; 47.8 µM (inactive) with OVCAR-4; 91.6 µM (inactive) in the assay with SNB-75; 50.5 µM (inactive) in the assay with TK-10; > 100 µM (inactive) in the assay on UACC-257. Besides, the GI50 in the assay with UACC-62 is 71.4 µM (inactive); with UO-31, > 100 µM (inactive).
Regarding `c1ccc2c(c1)SCCCSCCSCCCS2`, the GI50 in the assay on CCRF-CEM, with DU-145, with HCC 2998, in the assay with HCT-116, in the assay with HOP-62 and in the assay with LOX IMVI was > 100 µM (inactive) throughout. The GI50 was > 100 µM (inactive) in the assay with NCI-H23; > 100 µM (inactive) in the assay on NCI-H460; > 100 µM (inactive) in the assay with NCI/ADR-RES; > 100 µM (inactive) in the assay with OVCAR-3; 93.5 µM (inactive) in the assay on OVCAR-4; > 100 µM (inactive) with OVCAR-5. Also, the GI50 in the assay with SNB-75 is > 100 µM (inactive); in the assay with TK-10, > 100 µM (inactive); in the assay on UACC-257, > 100 µM (inactive); in the assay with UACC-62, > 100 µM (inactive); in the assay on UO-31, 60.5 µM (inactive).
In the case of `CC1CC(c2ccccc2)Nc2nc3ccccc3n21` (stereo unspecified), the GI50 in the assay with CCRF-CEM was > 100 µM (inactive); with HCT-116 it was 66.4 µM (inactive); with HOP-62 it was > 100 µM (inactive); in the assay with LOX IMVI, > 100 µM (inactive); with Malme-3M, > 100 µM (inactive); with NCI-H23 it was > 100 µM (inactive). Moreover, the GI50 in the assay with NCI-H460, in the assay on NCI/ADR-RES, in the assay with OVCAR-3, in the assay on OVCAR-4, in the assay with OVCAR-5 and in the assay with RXF 393 was > 100 µM (inactive) each time. Besides, the GI50 in the assay on SNB-75 was > 100 µM (inactive); with TK-10, > 100 µM (inactive); in the assay on UACC-257, > 100 µM (inactive); in the assay with UACC-62, > 100 µM (inactive); in the assay on UO-31, 59.8 µM (inactive).
In the case of `CC(=O)C(C)C(=O)N1C(=O)N(C)C2(C)N(C)C(=O)NC12C` (stereo unspecified), the GI50 in the assay with DU-145, with HCC 2998, in the assay on HCT-116, with HOP-62, in the assay with Malme-3M and in the assay on NCI-H23 was > 100 µM (inactive) throughout. In addition, the GI50 in the assay with NCI-H460, with NCI/ADR-RES, in the assay on OVCAR-3, with OVCAR-4, in the assay on OVCAR-5 and with SNB-75 was > 100 µM (inactive) each time. In addition, the GI50 with TK-10, with UACC-62 and in the assay on UO-31 was > 100 µM (inactive) throughout.
